Target: T1, Enoyl-[acyl-carrier-protein] reductase [NADH] (Mycobacterium tuberculosis, UniProt P9WGR1)
T1 sequence (P9WGR1 whole entry): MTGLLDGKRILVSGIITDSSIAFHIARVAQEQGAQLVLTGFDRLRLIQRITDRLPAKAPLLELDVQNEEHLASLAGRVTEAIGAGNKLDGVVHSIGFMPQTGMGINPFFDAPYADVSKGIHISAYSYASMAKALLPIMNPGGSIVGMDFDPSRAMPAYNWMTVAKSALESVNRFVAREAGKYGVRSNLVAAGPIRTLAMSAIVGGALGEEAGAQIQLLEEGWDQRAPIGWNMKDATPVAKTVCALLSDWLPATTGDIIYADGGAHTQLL
Assay: Inhibition of Mycobacterium tuberculosis InhA using DDCoA as substrate in presence of NADH by fluorimetric method

For Cc1cc(C)n(Cc2ccc(C(=O)NCc3ccc(F)cc3Cl)cc2)n1, the IC50 was 40 nM.
